Laboratory results from patent US12024490B2, “Polymeric metal chelating compositions and methods of preparing same for controlling growth and activities of living cells and organisms for therapeutic use in treating diseases in animals, fish or humans” (CHELATION PARTNERS INCORPORATED, priority 2016, dated 2024).
Values after ≈ are worked out from the molar mass of the structure shown.

System: Staphylococcus aureus
Experiment: Growth inhibition (MIC) in RPMI 1640, Staphylococcus aureus
Format: cell-based
Settings: method of Example 6, read-out: MIC for S. aureus
Protocol: Chelating compositions were assessed for their biological activity in vitro by determination of their growth inhibitory activity for Staphylococcus aureus (strain 038, a clinical isolate from a corneal infection obtained from Dr. Mark Wilcox, University New South Wales, Australia or strain ATCC 43300, a prototypical clinical isolate and reference strain obtained from the American Type Culture Collection) and Candida albicans (SC5314, a prototypical clinical isolate and reference strain obtained from the American Type Culture Collection or strain 3969 a clinical isolate obtained from the Queen Elizabeth II hospital, Halifax, Canada). The microorganisms were grown in RPMI 1640 culture medium and tested in fresh aliquots of RPMI 1640 medium or in medium that had been partially deferrated by the method of Holbein and Mira (Holbein B. E, Mira de Orduña R. 2010, FEMS Microbiol Lett. 307(1):19-24, herein incorporated by reference) to allow testing at low Fe levels or with iron re-added at known concentrations to this deferrated medium. Growth at 30° C. was measured by optical density when the test samples were incubated in tubes or visually when growth was tested in microtitre dish wells. […]

MIC: 125 µg/mL (≈ 529 µM)
SMILES: C=C(C)C(=O)NCCn1ccc(=O)c(O)c1C [MAHMP, 3-hydroxy-1-(β-methacrylamidoethyl)-2-methyl-4(1H)-pyridinone]
